The target in the test is T1, HIV integrase (Human immunodeficiency virus type 1 group M subtype B, UniProt P12497, F1332H).
T1 construct: HIV integrase full length gene; made in house; host or cells: Escherichia coli BL21 (DE3)
As to the kind of experiment: Determination of enzyme (HIV integrase) inhibitory activity. The following applies: recombinant integrase protein (phenylalanine at codon 185 substituted by histidine); donor/target DNA, absorbance at 450 nm; read-out: Anti-integrase activity (IC50 value). It is filed as biochemical. The source says:
The following explains evaluation methods of the HIV integrase inhibitory activity of the compound of the present invention.
HIV integrase full length gene (J. Virol., 67, 425-437 (1993)) in which phenylalanine at codon 185 was substituted by histidine, was inserted between the restriction enzyme NdeI and XhoI sites of plasmid pET21a(+) (Novagen), whereby an integrase expression vector pET21a-INH was constructed.
Escherichia coli recombinant BL21 (DE3) transformed with plasmid pET21a-INH obtained in (i) was shake cultured at 37° C. in a liquid medium containing ampicillin. When the culture reached the logarithmic growth phase, isopropyl-β-D-thiogalactopyranoside was added to promote expression of integrase gene. The culture was continued for 3 hr to promote accumulation of the integrase protein. The recombinant E. coli was collected in pellets by centrifugal separation and preserved at −80° C.
The E. coli was suspended in Lysis buffer (20 mM HEPES (pH 7.5), 5 mM DTT, 10 mM CHAPS, 10% glycerol) containing 1 M sodium chloride and subjected to repeat pressurization and depressurization for rupture, and centrifugal separation at 4° C., 40,000×g, 60 min to recover a water-soluble fraction (supernatant). This was diluted 10-fold with Lysis buffer free of sodium chloride, mixed with SP-Sepharose (Pharmacia Corporation) and stirred at 4° C. for 60 min to allow adsorption of integrase protein to the resin. The resin was washed with Lysis buffer containing 100 mM sodium chloride and the integrase protein was eluted with Lysis buffer containing 1 M sodium chloride.
The eluted integrase protein solution was subjected to a Superdex 75 (Pharmacia Corporation) column for gel filtration. The protein was eluted with Lysis buffer containing 1 M sodium chloride.
The obtained fractions of the integrase protein were collected and preserved at −80° C.
The following DNA synthesized by Greiner was dissolved in TE buffer (10 mM Tris-hydrochloric acid (pH 8.0), 1 mM EDTA) and mixed with donor DNA, target DNA, and each complementary strand (+ and − strands) to 1 μM. The mixture was heated at 95° C. for 5 min, 80° C. for 10 min, 70° C. for 10 min, 60° C. for 10 min, 50° C. for 10 min and 40° C. for 10 min and kept at 25° C. to give a double stranded DNA, which was used for the test.
The donor DNA was diluted with TE buffer to 10 nM, of which 50 μl was added to each well of streptavidin-coated microtiter plate (Roche) and allowed to adsorb at 37° C. for 60 min. The plate was washed with phosphate buffer (Dulbecco's PBS, Sanko Junyaku Co., Ltd.) containing 0.1% Tween 20 and phosphate buffer. Then, a reaction mixture (70 μl) having the following composition, a test substance (10 μl) diluted with the reaction mixture and 100 μg/ml integrase protein (10 μl) were added to each well and reacted at 37° C. for 60 min. Composition of the reaction mixture: 30 mM MOPS (3-morpholinopropanesulfonic acid), 5 mM magnesium chloride, 3 mM DTT (dithiothreitol), 0.1 mg/ml BSA (bovine serum albumin), 5% glycerol, 10% DMSO (dimethyl sulfoxide), 0.01% Tween 20.
Then, 50 nM target DNA (10 μl) was added, and the mixture was reacted at 37° C. for 10 min and washed with phosphate buffer containing 0.1% Tween 20 to stop the reaction.
Then, 100 mU/ml peroxidase labeled anti-digoxigenin antibody solution (Roche, 100 μl) was added, and the mixture was reacted at 37° C. for 60 min, followed by washing with phosphate buffer containing 0.1% Tween 20.
A peroxidase color solution (Bio Rad, 100 μl) was added and allowed to react at room temperature for 4 min. The color reaction was stopped by adding 1N sulfuric acid (100 μl). The absorbance at 450 nm was measured. […]
On to `CC(C)c1cc(C(=O)O)c(=O)n2cc(Cc3cccc(Cl)c3F)ccc12` [Example 13, 7-(3-chloro-2-fluorobenzyl)-1-isopropyl-4-oxo-4H-quinolizine-3-carboxylic acid], for which the IC50 – broadly, the concentration at which inhibition is half-maximal – fell in the range of 10 to 100 nM.
The result for `O=C(O)CCC(=O)NCc1cc(C(=O)O)c(=O)n2cc(Cc3cccc(Cl)c3F)ccc12` [Example 54, 1-[(3-carboxypropionylamino)methyl]-7-(3-chloro-2-fluorobenzyl)-4-oxo-4H-quinolizine-3-carboxylic acid] reads 10 to 100 nM.
The result for `O=C(O)C(=O)NCc1cc(C(=O)O)c(=O)n2cc(Cc3cccc(Cl)c3F)ccc12` [Example 50, 7-(3-chloro-2-fluorobenzyl)-1-[(oxalylamino)methyl]-4-oxo-4H-quinolizine-3-carboxylic acid] reads 10 to 100 nM.
As to `NC(=O)Cc1cc(C(=O)O)c(=O)n2cc(Cc3cccc(Cl)c3F)ccc12` [Example 26, 1-carbamoylmethyl-7-(3-chloro-2-fluorobenzyl)-4-oxo-4H-quinolizine-3-carboxylic acid], the IC50 lay in the range of 10 to 100 nM.
As for `O=C(O)c1ccc2ccc(Cc3ccccc3)cn2c1=O` [Example 11, 7-benzyl-4-oxo-4H-quinolizine-3-carboxylic acid], the IC50 lay in the range of 1000 to 10000 nM.
`O=C(NCc1cc(C(=O)O)c(=O)n2cc(Cc3cccc(Cl)c3F)ccc12)c1ccccc1` [Example 45, 1-(benzoylaminomethyl)-7-(3-chloro-2-fluorobenzyl)-4-oxo-4H-quinolizine-3-carboxylic acid]: the IC50 was in the range of 10 to 100 nM.
With `CC(C)(C)C(=O)NCc1cc(C(=O)O)c(=O)n2cc(Cc3cccc(Cl)c3F)ccc12` [Example 37, 7-(3-chloro-2-fluorobenzyl)-1-(2,2-dimethylpropionylamino)methyl-4-oxo-4H-quinolizine-3-carboxylic acid], the IC50 lay in the range of 10 to 100 nM.
For the compound `CS(=O)(=O)Nc1cc(C(=O)O)c(=O)n2cc(Cc3cccc(Cl)c3F)ccc12` [Example 29, 7-(3-chloro-2-fluorobenzyl)-1-methylsulfonylamino-4-oxo-4H-quinolizine-3-carboxylic acid], the IC50 is 100 to 1000 nM.
For the compound `CNCc1cc(C(=O)O)c(=O)n2cc(Cc3cccc(Cl)c3F)ccc12` [Example 21, 7-(3-chloro-2-fluorobenzyl)-1-methylaminomethyl-4-oxo-4H-quinolizine-3-carboxylic acid], the IC50 lay within 100 to 1000 nM.
Regarding `COC(=O)NCc1cc(C(=O)O)c(=O)n2cc(Cc3cccc(Cl)c3F)ccc12` [Example 24, 7-(3-chloro-2-fluorobenzyl)-1-(methoxycarbonylaminomethyl)-4-oxo-4H-quinolizine-3-carboxylic acid], the IC50 was 10 to 100 nM.
In the case of `COCC(=O)NCc1cc(C(=O)O)c(=O)n2cc(Cc3cccc(Cl)c3F)ccc12` [Example 40, 7-(3-chloro-2-fluorobenzyl)-1-[(2-methoxyacetylamino)methyl]-4-oxo-4H-quinolizine-3-carboxylic acid] it was 10 to 100 nM; in that of `CO[C@@H](C)C(=O)NCc1cc(C(=O)O)c(=O)n2cc(Cc3cccc(Cl)c3F)ccc12` [Example 52, 7-(3-chloro-2-fluorobenzyl)-1-[((S)-2-methoxypropionylamino)methyl]-4-oxo-4H-quinolizine-3-carboxylic acid], 10 to 100 nM; in that of `COCc1cc(C(=O)O)c(=O)n2cc(Cc3cccc(Cl)c3F)ccc12` [Example 19, 7-(3-chloro-2-fluorobenzyl)-1-methoxymethyl-4-oxo-4H-quinolizine-3-carboxylic acid], 100 to 1000 nM.
In the case of `CCOC(=O)NCc1cc(C(=O)O)c(=O)n2cc(Cc3cccc(Cl)c3F)ccc12` [Example 46, 7-(3-chloro-2-fluorobenzyl)-1-(ethoxycarbonylaminomethyl)-4-oxo-4H-quinolizine-3-carboxylic acid] it was 10 to 100 nM.
The result for `CCC(=O)NCc1cc(C(=O)O)c(=O)n2cc(Cc3cccc(Cl)c3F)ccc12` [Example 42, 7-(3-chloro-2-fluorobenzyl)-4-oxo-1-(propionylaminomethyl)-4H-quinolizine-3-carboxylic acid] reads 10 to 100 nM; that for `COc1cc2c([C@H](CO)C(C)C)cc(C(=O)O)c(=O)n2cc1Cc1cccc(Cl)c1F` [Example 10, 7-(3-chloro-2-fluorobenzyl)-1-((R)-1-hydroxymethyl-2-methylpropyl)-8-methoxy-4-oxo-4H-quinolizine-3-carboxylic acid], less than 10 nM; that for `CCCc1cc(C(=O)O)c(=O)n2cc(Cc3cccc(Cl)c3F)ccc12` [Example 12, 7-(3-chloro-2-fluorobenzyl)-4-oxo-1-propyl-4H-quinolizine-3-carboxylic acid], 10 to 100 nM.
`CC(C)(C)OC(=O)NCc1cc(C(=O)O)c(=O)n2cc(Cc3cccc(Cl)c3F)ccc12` [Example 35, 1-(tert-butoxycarbonylamino)methyl-7-(3-chloro-2-fluorobenzyl)-4-oxo-4H-quinolizine-3-carboxylic acid]: the IC50 was 10 to 100 nM.
In the case of `CN(Cc1cc(C(=O)O)c(=O)n2cc(Cc3cccc(Cl)c3F)ccc12)C(=O)OC(C)(C)C` [Example 41, 1-[(N-(tert-butoxycarbonyl)-N-methylamino)methyl]-7-(3-chloro-2-fluorobenzyl)-4-oxo-4H-quinolizine-3-carboxylic acid] it was 10 to 100 nM.
On to `CC(=O)Nc1cc(C(=O)O)c(=O)n2cc(Cc3cccc(Cl)c3F)ccc12` [Example 61, 1-acetylamino-7-(3-chloro-2-fluorobenzyl)-4-oxo-4H-quinolizine-3-carboxylic acid], for which the IC50 is 100 to 1000 nM.
In the case of `N#Cc1cc(C(=O)O)c(=O)n2cc(Cc3cccc(Cl)c3F)ccc12` [Example 33, 7-(3-chloro-2-fluorobenzyl)-1-cyano-4-oxo-4H-quinolizine-3-carboxylic acid], the IC50 was in the range of 10 to 100 nM.
Regarding `O=C(O)Cc1cc(C(=O)O)c(=O)n2cc(Cc3cccc(Cl)c3F)ccc12` [Example 36, 1-carboxymethyl-7-(3-chloro-2-fluorobenzyl)-4-oxo-4H-quinolizine-3-carboxylic acid], the IC50 was in the range of 10 to 100 nM.
The result for `CCc1cc(C(=O)O)c(=O)n2cc(Cc3cccc(Cl)c3F)ccc12` [Example 4, 7-(3-chloro-2-fluorobenzyl)-1-ethyl-4-oxo-4H-quinolizine-3-carboxylic acid] reads 10 to 100 nM; that for `CCOCC(=O)NCc1cc(C(=O)O)c(=O)n2cc(Cc3cccc(Cl)c3F)ccc12` [Example 55, 7-(3-chloro-2-fluorobenzyl)-1-[(2-ethoxyacetylamino)methyl]-4-oxo-4H-quinolizine-3-carboxylic acid], 10 to 100 nM.
In the case of `CC(C)(C)OC(=O)c1cc(C(=O)O)c(=O)n2cc(Cc3cccc(Cl)c3F)ccc12` [Example 62, 7-(3-chloro-2-fluorobenzyl)-4-oxo-4H-quinolizine-1,3-dicarboxylic acid 1-tert-butyl ester] it was 100 to 1000 nM; in that of `COc1cc2c([C@H](CO)C(C)(C)C)cc(C(=O)O)c(=O)n2cc1Cc1cccc(Cl)c1F` [Example 17, 7-(3-chloro-2-fluorobenzyl)-1-((R)-1-hydroxymethyl-2,2-dimethylpropyl)-8-methoxy-4-oxo-4H-quinolizine-3-carboxylic acid], less than 10 nM; in that of `CC(C)[C@@H](CO)c1cc(C(=O)O)c(=O)n2cc(Cc3cccc(Cl)c3Cl)ccc12` [Example 63, 7-(2,3-dichlorobenzyl)-1-((R)-1-hydroxymethyl-2-methylpropyl)-4-oxo-4H-quinolizine-3-carboxylic acid], less than 10 nM.

The values are drawn from patent US7745459B2, “Quinolizinone compound and use thereof as HIV integrase inhibitor” (Japan Tobacco Inc., priority 2004, dated 2010).
